# According to ChEMBL document CHEMBL1821650, “Pharmacodynamic synergy strictly dependent on the co-operative aggregation of enantiomers of cyclic peptides in the bacterial cell membrane” (Bioorg Med Chem Lett, 2011):
# Active and inactive are the calls of the source. No cut-off for these calls is given here.
# Assays:
# Priestia megaterium [1] = assay: Antimicrobial activity against Bacillus megaterium at 1 mM after 24 hrs by agar diffusion method; assay type: functional, organism-based
# Priestia megaterium [2] = assay: Antimicrobial activity against Bacillus megaterium after 18 hrs by broth microdilution method; assay type: functional, organism-based
# [3] = Toxicity in sheep erythrocytes assessed as hemolysis at up to 100 uM after 20 mins; assay type: cell-based, Ovis aries; conditions: erythrocyte
# Priestia megaterium [4] = assay: Antimicrobial activity against Bacillus megaterium at > 50 uM by broth microdilution method; assay type: functional, organism-based
# [5] = Toxicity in sheep erythrocytes assessed as hemolysis at up to 1000 uM after 20 mins; assay type: cell-based, Ovis aries; conditions: erythrocyte
# [6] = Solubility of the compound in 33 % acetonitrile-water; assay type: physicochemical; conditions: buffer
solubility [6],Compound,Activity (Priestia megaterium [1]),Activity (Priestia megaterium [2]),Activity [3],Activity (Priestia megaterium [4]),Activity [5]
–,C[C@H]1NC(=O)[C@H](CC(C)(C)C)NC(=O)[C@@H](C)NC(=O)[C@H](CC(C)(C)C)NC(=O)[C@@H](CCCCN)NC(=O)[C@H](CC(C)(C)C)NC(=O)[C@@H](C)NC(=O)[C@H](CC(C)(C)C)NC1=O,Active,Active,Non-toxic,–,–
–,C[C@@H]1NC(=O)[C@@H](CC(C)(C)C)NC(=O)[C@H](C)NC(=O)[C@@H](CC(C)(C)C)NC(=O)[C@@H](CCCCN)NC(=O)[C@@H](CC(C)(C)C)NC(=O)[C@H](C)NC(=O)[C@@H](CC(C)(C)C)NC1=O,inactive,inactive,–,Active,Non-toxic
soluble,CC(C)(C)C[C@H]1NC(=O)[C@H](CCC(N)=O)NC(=O)[C@@H](CC(C)(C)C)NC(=O)[C@H](CCC(N)=O)NC(=O)[C@@H](CC(C)(C)C)NC(=O)[C@H](CCC(=O)O)NC(=O)[C@@H](CC(C)(C)C)NC(=O)[C@H](CCC(N)=O)NC1=O,–,–,–,–,–
soluble,CC(C)(C)C[C@@H]1NC(=O)[C@@H](CCC(N)=O)NC(=O)[C@H](CC(C)(C)C)NC(=O)[C@@H](CCC(N)=O)NC(=O)[C@H](CC(C)(C)C)NC(=O)[C@@H](CCC(=O)O)NC(=O)[C@H](CC(C)(C)C)NC(=O)[C@@H](CCC(N)=O)NC1=O,–,–,–,–,–
–,C[C@H]1NC(=O)[C@H](CC(C)(C)C)NC(=O)[C@@H](C)NC(=O)[C@H](CC(C)(C)C)NC(=O)[C@@H](C)NC(=O)[C@H](CC(C)(C)C)NC(=O)[C@H](CCCCN)NC(=O)[C@H](CC(C)(C)C)NC1=O,inactive,inactive,–,Active,Non-toxic
–,C[C@@H]1NC(=O)[C@@H](CC(C)(C)C)NC(=O)[C@H](C)NC(=O)[C@@H](CC(C)(C)C)NC(=O)[C@H](CCCCN)NC(=O)[C@@H](CC(C)(C)C)NC(=O)[C@H](C)NC(=O)[C@@H](CC(C)(C)C)NC1=O,Active,Active,Non-toxic,–,–
